Test results published in patent publication US6465457B1 (priority 1991, dated 2002).
Like-named read-outs stand apart in the source and are kept apart here.

Key:
Format in all cases: in vivo
[1] = test system: Pyricularia oryzae (Rice); settings: one or two days before inoculation
[2] = test system: Puccinia recondita (Wheat); test: Foliar fungal disease test on plants: Puccinia recondita (Wheat)
Protocol: (§1) The compounds were tested against a variety of foliar fungal diseases of plants. The technique employed was as follows.
The plants were grown in John Innes Potting Compost (No 1 or 2) in 4 cm diameter minipots. The test compounds were formulated either by bead milling with aqueous DISPERSOL T or as a solution in acetone or acetone/ethanol which was diluted to the required concentration immediately before use. The formulations (100 ppm active ingredient) were sprayed on to the foliage or applied to the roots of the plants in the soil. The sprays were applied to maximum retention and the root drenches to a final concentration equivalent to approximately 40 ppm a.i. in dry soil. TWEEN 20 was added to give a final concentration of 0.05% when the sprays were applied to cereals.
[…] An exception was the test on Erysiphe graminis in which the plants were inoculated 24 hours before treatment. Foliar pathogens were applied by spray as zoosporangial suspensions onto the leaves of test plants. After inoculation, the plants were put into an appropriate environment to allow infection to proceed and then incubated until the disease was ready for assessment. The period between inoculation and assessment varied from four to fourteen days according to the disease and environment.
(§2) The disease level present (i.e. leaf area covered by actively sporulating disease) on each of the treated plants was recorded using the following assessment scale:
(§3) Each assessment was then expressed as a percentage of the level of disease present on the untreated control plants. This calculated value is referred to as a POCO (Percentage of Control) value. An example of a typical calculation is as follows:
(§4) Disease level on untreated control=90
(§5) Disese level on treated plant=30 [formula]
(§6) This calculated POCO value is then rounded to the nearest of the values in the 9-point assessment scale shown above. In this particular example, the POCO value would be rounded to 30. If the calculated POCO falls exactly mid-way between two of the points, it is rounded to the lower of the two values.

Septoria nodorum (Wheat) = test: Foliar fungal disease test on plants: Septoria nodorum (Wheat); settings: one or two days before inoculation
Protocol: as §1
(§7) The plants were grown in John Innes Potting Compost (No 1 or 2) in 4 cm diameter minipots. The test compounds were formulated either by bead milling with aqueous DISPERSOL T or as a solution in acetone or acetone/ethanol which was diluted to the required concentration immediately before use. […] The sprays were applied to maximum retention and the root drenches to a final concentration equivalent to approximately 40 ppm a.i. in dry soil. TWEEN 20 was added to give a final concentration of 0.05% when the sprays were applied to cereals.
(§8) For most of the tests the compounds were applied to the soil (roots) or to the foliage (by spraying) one or two days before the plant was inoculated with the disease. An exception was the test on Erysiphe graminis in which the plants were inoculated 24 hours before treatment. Foliar pathogens were applied by spray as zoosporangial suspensions onto the leaves of test plants. After inoculation, the plants were put into an appropriate environment to allow infection to proceed and then incubated until the disease was ready for assessment. The period between inoculation and assessment varied from four to fourteen days according to the disease and environment.
as §2, §3, §4, §5, §6

[3] = test system: Thanatephorus cucumeries (Rice); test: Foliar fungal disease test on plants: Thanatephorus cucumeries (Rice); settings: one or two days before inoculation
Protocol: as §1, §7, §8, §2, §3, §4, §5, §6

[4] = test system: Plasmopara viticola (Vines); test: Foliar fungal disease test on plants: Plasmopara viticola (Vines); settings: one or two days before inoculation
Protocol: as §1, §7, §8, §2, §3, §4, §5, §6

[5] = test system: Venturia inaequalis (Apples); test: Foliar fungal disease test on plants: Venturia inaequalis (Apples); settings: 100 ppm a.i. foliar spray or root drench (approx. 40 ppm in dry soil), one or two days before inoculation
Protocol: as §1, §7, §8, §2, §3, §4, §5, §6

[6] = test system: Erysiphe graminis tritici (Wheat); test: Foliar fungal disease test on plants: Erysiphe graminis tritici (Wheat); settings: 100 ppm a.i. foliar spray or root drench (approx. 40 ppm in dry soil); plants inoculated 24 hours before treatment
Protocol: as §1, §7, §8, §2, §3, §4, §5, §6

[7] = test system: Phytophthora infestans (Tomatoes); settings: 100 ppm a.i. foliar spray or root drench (approx. 40 ppm in dry soil), one or two days before inoculation
[8] = 100 ppm a.i. foliar spray or root drench (approx. 40 ppm in dry soil)
[9] = 100 ppm a.i. foliar spray or root drench, plants inoculated with Puccinia recondita 48 hours before treatment
[10] = 100 ppm a.i. foliar spray or root drench (approx. 40 ppm in dry soil), one or two days before inoculation

SMILES | POCO (Percentage of Control) disease level, Pyricularia oryzae (Rice) [1, 8] | POCO (Percentage of Control) disease level, Puccinia recondita (Wheat) [2, 9] | POCO (Percentage of Control) disease level, Septoria nodorum (Wheat) (Septoria nodorum (Wheat); [8]) | POCO (Percentage of Control) disease level, Thanatephorus cucumeries (Rice) [3, 8] | POCO (Percentage of Control) disease level, Plasmopara viticola (Vines) [4, 8] | POCO (Percentage of Control) disease level, Venturia inaequalis (Apples) [5] | POCO (Percentage of Control) disease level, Erysiphe graminis tritici (Wheat) [6] | POCO (Percentage of Control) disease level, Pyricularia oryzae (Rice) ([1]; 10 ppm foliar spray only) | POCO (Percentage of Control) disease level, Puccinia recondita (Wheat) ([2]; 10 ppm foliar spray only, one or two days before inoculation) | POCO (Percentage of Control) disease level, Septoria nodorum (Wheat) (Septoria nodorum (Wheat); 10 ppm foliar spray only) | POCO (Percentage of Control) disease level, Thanatephorus cucumeries (Rice) ([3]; 10 ppm foliar spray only) | POCO (Percentage of Control) disease level, Plasmopara viticola (Vines) ([4]; 10 ppm foliar spray only) | POCO (Percentage of Control) disease level, Puccinia recondita (Wheat) [2, 10] | POCO (Percentage of Control) disease level, Phytophthora infestans (Tomatoes) [7]
COC=C(C(=O)OC)c1ccccc1COC(=O)Nc1ccccc1C#N [29 (1)] | 0 (0 = 0% disease present) | 30+ (30 = 20.1-30% disease present) | 60 (60 = 30.1-60% disease present) | 5 (5 = 3.1-5% disease present) | 20 (20 and 24 = 10.1-20% disease present) | 0 (0 = 0% disease present) | 5 (5 = 3.1-5% disease present) |  |  |  |  |  |  | 
COC=C(C(=O)OC)c1ccccc1COC(=O)N(C)c1ccccc1C#N [29 (2)] | 0 (0 = 0% disease present) | 20+ (20 and 24 = 10.1-20% disease present) | 30 (30 = 20.1-30% disease present) | 30 (30 = 20.1-30% disease present) | 0 (0 = 0% disease present) | 0 (0 = 0% disease present) | 0 (0 = 0% disease present) |  |  |  |  |  |  | 
COC=C(C(=O)OC)c1ccccc1COC(=S)Nc1ccc(Cl)cc1 [11 (6)] |  |  |  |  |  |  |  | 20 (20 and 24 = 10.1-20% disease present) | 20 (20 and 24 = 10.1-20% disease present) | 60 (60 = 30.1-60% disease present) | 90 (90 and 94 = 60.1-100% disease present) | 0 (0 = 0% disease present) |  | 
COC=C(C(=O)OC)c1ccccc1COC(=S)Nc1ccc([N+](=O)[O-])cc1 [9 (6)] | 20 (20 and 24 = 10.1-20% disease present) |  | 90 (90 and 94 = 60.1-100% disease present) | 90 (90 and 94 = 60.1-100% disease present) | 90 (90 and 94 = 60.1-100% disease present) |  | 90 (90 and 94 = 60.1-100% disease present) |  |  |  |  |  | 90 (90 and 94 = 60.1-100% disease present) | 
COC=C(C(=O)OC)c1ccccc1COC(=S)Nc1ccccc1SC [21 (6)] | 0 (0 = 0% disease present) |  | 0 (0 = 0% disease present) | 0 (0 = 0% disease present) | 0 (0 = 0% disease present) |  | 3 (3 = 1.1-3% disease present) |  |  |  |  |  | 0 (0 = 0% disease present) | 
COC=C(C(=O)OC)c1ccccc1OC(=O)NCc1ccccc1 [4 (17)] | 5 (5 = 3.1-5% disease present) |  | 60 (60 = 30.1-60% disease present) | 0 (0 = 0% disease present) | 0 (0 = 0% disease present) |  | 10 (10 = 5.1-10% disease present) |  |  |  |  |  | 1 (1 = 0.1-1% disease present) | 
COC=C(C(=O)OC)c1ccccc1COC(=O)Nc1ccc(F)cc1F [24 (1)] | 90 (90 and 94 = 60.1-100% disease present) |  | 60 (60 = 30.1-60% disease present) | 60 (60 = 30.1-60% disease present) | 0 (0 = 0% disease present) | 0 (0 = 0% disease present) | 0 (0 = 0% disease present) |  |  |  |  |  |  | 20 (20 and 24 = 10.1-20% disease present)
CCN(C(=O)OCc1ccccc1C(=COC)C(=O)OC)c1ccccc1F [3 (3)] | 0 (0 = 0% disease present) |  | 0 (0 = 0% disease present) | 0 (0 = 0% disease present) | 0 (0 = 0% disease present) | 0 (0 = 0% disease present) | 0 (0 = 0% disease present) |  |  |  |  |  |  | 0 (0 = 0% disease present)
COC=C(C(=O)OC)c1ccccc1COC(=O)N(C)c1ccccc1F [3 (2)] | 0 (0 = 0% disease present) |  | 0 (0 = 0% disease present) | 0 (0 = 0% disease present) | 0 (0 = 0% disease present) | 0 (0 = 0% disease present) | 0 (0 = 0% disease present) |  |  |  |  |  |  | 0 (0 = 0% disease present)
CCN(C(=O)OCc1ccccc1C(=COC)C(=O)OC)c1ccccc1 [5 (3)] | 0 (0 = 0% disease present) |  | 0 (0 = 0% disease present) | 5 (5 = 3.1-5% disease present) | 0 (0 = 0% disease present) | 0 (0 = 0% disease present) | 0 (0 = 0% disease present) |  |  |  |  |  |  | 5 (5 = 3.1-5% disease present)
COC=C(C(=O)OC)c1ccccc1COC(=O)Nc1ccccc1C(=O)OC [33 (1)] | 90 (90 and 94 = 60.1-100% disease present) |  | 90 (90 and 94 = 60.1-100% disease present) | 90 (90 and 94 = 60.1-100% disease present) | 90 (90 and 94 = 60.1-100% disease present) | 0 (0 = 0% disease present) | 60 (60 = 30.1-60% disease present) |  |  |  |  |  |  | 90 (90 and 94 = 60.1-100% disease present)
